Tests used:
[1] = Thermal stability of NBPT at high temperature; assay type: physicochemical; details: followed by sludge/precipitate formation after weeks of high heat
Experimental: Another problem is that certain nitrification inhibitors and/or urease inhibitors degrade at certain high temperatures. […] Often times temperatures in agricultural fields (e.g., corn fields, wheat fields, etc.) reach in excess of 35° C. and sometimes can reach up to 45° C. or higher. For example, at 45° C. […] Thus, it is also desirable to have solvent systems containing nitrification inhibitors and/or urease inhibitors that are stabilized at high temperatures, such as those utilized in hot climates or weather. This invention addresses the addition of co-solvents and/or stabilizers to prolong the chemical and physical stability of formulated liquid agricultural compositions containing (i) one or more nitrification inhibitors, (ii) one or more urease inhibitors or (iii) a combination of both (i) and (ii). In one embodiment, the at least one urease inhibitor is NBPT. In one embodiment, the at least one nitrification inhibitor a natural nitrification inhibitor. In yet another embodiment, the at least one nitrification inhibitor is neem.

[2] = typically above 45° C.; cited from earlier work
[3] = cited from earlier work

SMILES | appearance of NBPT formulated in different solvents at 45° C. [1] | degradation at higher temperature [2] | solubility in water [3]
CCCCNP(N)(N)=S [NBPT, N-(n-butyl)-thiophosphoric triamide] | changes color in days from colorless to a darker green/brown | degrades rapidly | 
N#CNC(=N)N [dicyandiamide, Dicyandiamide] |  |  | about 41 g/l
